What was measured:
Assay type in all cases: physicochemical
[1] = Equilibrium swelling, gel fraction and Mc (Flory-Rehner) of PEG-OND hydrogels; details: for Mc (apparent molecular weight between elastic crosslinks): calculated with the Flory-Rehner equation from swelling results; for Gel Fraction: mass of dry residue post-swelling/input mass of OND and 4-PEG-SH; for Equilibrium Swelling Ratio: mass post-swelling/mass pre-swelling, deionized water, 4° C., 24 hours, n = 3 gels
Experimental: The swelling of the PEG-OND hydrogels in deionized water was measured at 4° C. to prevent significant fragmentation during the experiment. […] An independent experiment measuring soluble fraction thiol content yielded results complementing those obtained gravimetrically (Table S3, and related discussion below). With the knowledge that small molecules can readily permeate swollen PEG-OND hydrogels (see below), detecting and modifying residual thiols in gels prepared from divalent linkers 7a and 8 by swelling in the presence of a fluorogenic OND derivative was attempted (FIG. 15, and related discussion below).
200 μL gels were prepared in pH 7.4 100 mM phosphate buffered saline containing 7% DMSO with 3.5 wt % 4-PEG-SH and the corresponding bis-, tris-, and tetra-ONDs to provide a 1:1 thiol to electrophile ratio, and allowed to cure for 20 minutes at room temperature. The mass of the gels after curing was recorded (Meq) before suspending in 5.5 mL of water. The hydrogels were stored at 4° C. during swelling to prevent significant degradation of the network during the experiment. The increase in mass of the gels was monitored periodically by decanting and blotting the gel gently with a kimwipe to remove excess water before weighing. After 24 hours swelling, when swelling had stabilized, the mass of the gel was recorded (Meq). The equilibrium mass swelling ratio was then determined using the following relationship:
After weighing equilibrium-swelled gels to determine equilibrium mass swelling ratio, the gels were freeze-dried and the residual mass was weighed (Mres). It is expected that buffer salts present in the sample when it was formed were removed by the multiple changes of swelling solvent (pure water). The mass of the remaining residue was compared to the input mass (Min) of 4-PEG-SH macromer and OND-based linker. The ratio of the residual mass and the input mass provides the fraction of material by mass incorporated into the hydrogel network (gel fraction), as shown in the following equation: […]
The apparent molecular weight between elastically-productive crosslinks (Mc) was determined from equilibrium swelling data, collected as described in section VII.1 and applying a modified form of the Flory-Rehner equation for networks formed under dilute conditions:
[formula] where Mn is the number average molecular weight for the polymeric macromer (10,000 g/mol), v is the specific volume of the polymer ([…] for PEG) V1 is the molar volume of solvent used for swelling ([…] for water), χ is the polymer-interaction parameter (0.43 for PEG-H2O and assumed constant for the described experiments). V2, and V2, are the volume fraction of polymer in the equilibrium swollen gel and the relaxed gel after curing, respectively, and are calculated as follows:
[formula] where qw is the weight swelling ratio after equilibrium swelling, qF is the weight swelling ratio after curing, ρp is the density of the polymer (1.12 g/cm^3 for PEG), ρwater=ρcure solvent is the density of swelling solvent and solvent during gel formation (1.00 g/cm^3 for water). The weight swelling ratios qw and qF are determined from data gathered in equilibrium swelling experiments using the following relationships:
[formula] where ms is the mass of the gel after equilibrium swelling, mc is the mass of the gel after curing, and md is the mass of the dried gel, or input mass of polymer and crosslinkers.
Using the formulae above, masses of hydrogel samples recorded after equilibrium swelling, curing, and drying were applied to estimate the apparent molecular weight between crosslinks, which are summarized in Table 1 of the main text. The experimentally observed Mc values for gels formed using divalent OND linkers was lower than theoretical ideal value Mc,ideal. This can be explained by the fact that the Mc,ideal values calculated for these gels (entries 1-5 of Table S1) are greater than the entanglement molecular weight for polyethylene glycol (˜4,400 g/mol). […]

[2] = Gelation of 4-PEG-SH with OND linkers, gelation time by inversion test; details: neutral water, 17% DMSO, stoichiometric triethylamine added, room temperature
Experimental: PEG-OND hydrogels were prepared by mixing tetravalent thiol-terminated PEG (4-PEG-SH, Mw˜2,500 Da for each arm) at 3.5 weight percent and multivalent OND linkers at equimolar concentration of thiol and electrophile in phosphate buffer containing 7% DMSO by volume (FIG. 42). The reactions were mixed briefly and the gel was allowed to cure at temperature or 37° C. Gelation time was recorded as the point at which the sample no longer flowed upon inversion of the reaction vessel.
Trial gelations were performed by premixing a solution of linker 7a with four-armed thiol-terminated poly(ethylene glycol) (4-PEG-SH. Mn=10,000) in neutral water containing 17% DMSO by volume. The overall concentration of PEG macromer was varied from 0.4 wt % to 8.3 wt % while maintaining an equimolar ratio of thiol to electrophile. Under these conditions, no gels formed on standing at room temperature for five minutes.
Based on empirical observations made in these trials, subsequent gels were prepared at room temperature from 3.5 wt % 4-PEG-SH solutions in phosphate buffers containing 7% DMSO at equimolar concentrations of thiol and OND electrophile. Mixtures were mixed briefly with a vortex mixer, and the reaction vial was periodically tilted or inverted. Gelation time was recorded when the sample no longer flowed and was self-supporting. […] Gelation time at 37° C. was determined by pre-warming 4-PEG-SH macromer and OND stock solutions in a 37° C. water bath. Gel components were combined and mixed briefly by pipetting, and the sample was held in the water bath. Gelation time was determined by the inversion test, as described above.
The labeled protein solutions prepared as described in the previous section were diluted three-fold with pH 7.4 100 mM phosphate buffer and used to dissolve the 4-PEG-SH macromer at 3.76 wt %. This solution was used in an identical manner as pure 4-PEG-SH solution for the purpose of forming PEG-OND hydrogels (FIG. 45). All samples formed self-supporting hydrogels within 1 min after mixing, as determined by the inversion test.

[3] = Oscillatory rheology of PEG-OND hydrogels; details: pH 7.2, 37° C., strain 1%, 1 rad/sec, after 2-3 hours
Experimental: Oscillatory rheology was used to assess the viscoelastic properties of selected PEG-OND hydrogels. […] The truncated cone was then brought in contact with the bis-EONB/4-PEG-SH mixture before setting of the gel by positioning the tool at the measuring position. The sample was inspected for spillovers and trimmed as required. A preliminary preshearing step consisting of 30 seconds at 0.1% strain and ω=0.01 rad/s was performed to ensure good contact with the gel sample. The elastic (storage) and viscous (loss) moduli, G′ and G″, respectively, were then measured as a function of time for a constant strain of 1% and an angular frequency of 1 rad/sec. The ability to store energy is described by G′, while the amount of energy dissipated is related with G″. It was observed that the sample experienced a rapid transformation from an initial state in which G′ was not much larger than G″ to a state in which G′ was clearly predominant, as shown in FIG. 5; this is consistent with gelation. The observed transformation happened in the first few minutes after preparation, even when the hydrogel continued to rigidify for up to 2-3 hours.
The linear regime of this sample was determined by performing an oscillatory strain sweep at 37° C. The frequency sweep shown in the main text was thus performed in the linear region.
[…] In both experiments, G′>>G″.

SMILES	Mc (apparent molecular weight between elastic crosslinks) [1]	Gel Fraction [1]	Equilibrium Swelling Ratio [1]	4-PEG-SH concentration giving instantaneous gelation [2]	Storage modulus G′ versus loss modulus G″ [3]
COC(=O)C1=C(C(=O)OC)C2(CNC(=O)CCCC(=O)NCC34C=CC(O3)C(C(=O)OC)=C4C(=O)OC)C=CC1O2 [Linker 7a, Tetramethyl 1,1′-((glutaroylbis(azanediyl))bis(methylene))bis(7-oxabicyclo[2.2.1]hepta-2,5-diene-2,3-dicarboxylate)]	4080 ± 57 g/mol	0.91 ± 0.03	1.7 ± 0.04	> 2.5 wt %	–
COC(=O)C1=C(C(=O)OC)C2(CNC(=O)CCCC(=O)NCC34OC(C(C(=O)OC)=C3C(=O)OC)C3OC34)OC1C1OC12 (centres unmarked) [Linker 8, Tetramethyl 1,1′-((glutaroylbis(azanediyl))bis(methylene))bis(3,8-dioxatricyclo[3.2.1.0^2,4]oct-6-ene-6,7-dicarboxylate)]	3900 ± 93 g/mol	0.97 ± 0.01	1.60 ± 0.10	–	G″ was negligible in comparison with G′

— patent publication US10517952B2, “Nucleophile-triggered degradable materials and methods of making and using the same” (GEORGIA TECH RESEARCH CORPORATION, priority 2014, dated 2019)
